{"source": "patent EP1715059A1", "about": "“Method for the identification of possibly harmful receptor tyrosine kinase (RTK) mutations and of inhibitors or medication directed against RTK mutants” (Esbatech AG, priority 2005, dated 2006)", "key": {"[1]": {"tested_on": "PDGFR-β", "test": "Yeast growth assay, selection of specific RTK inhibition (OD 600 nm)", "format": "cell-based, human", "details": "50 µM in the yeast culture", "description": "(§1) Selection of specific inhibition of Receptor Tyrosine Kinase activity in yeast."}, "[2]": {"molecular_target": "N822H (Homo sapiens, UniProt P10721, N822H)", "sequence (P10721 26-976 N822H)": "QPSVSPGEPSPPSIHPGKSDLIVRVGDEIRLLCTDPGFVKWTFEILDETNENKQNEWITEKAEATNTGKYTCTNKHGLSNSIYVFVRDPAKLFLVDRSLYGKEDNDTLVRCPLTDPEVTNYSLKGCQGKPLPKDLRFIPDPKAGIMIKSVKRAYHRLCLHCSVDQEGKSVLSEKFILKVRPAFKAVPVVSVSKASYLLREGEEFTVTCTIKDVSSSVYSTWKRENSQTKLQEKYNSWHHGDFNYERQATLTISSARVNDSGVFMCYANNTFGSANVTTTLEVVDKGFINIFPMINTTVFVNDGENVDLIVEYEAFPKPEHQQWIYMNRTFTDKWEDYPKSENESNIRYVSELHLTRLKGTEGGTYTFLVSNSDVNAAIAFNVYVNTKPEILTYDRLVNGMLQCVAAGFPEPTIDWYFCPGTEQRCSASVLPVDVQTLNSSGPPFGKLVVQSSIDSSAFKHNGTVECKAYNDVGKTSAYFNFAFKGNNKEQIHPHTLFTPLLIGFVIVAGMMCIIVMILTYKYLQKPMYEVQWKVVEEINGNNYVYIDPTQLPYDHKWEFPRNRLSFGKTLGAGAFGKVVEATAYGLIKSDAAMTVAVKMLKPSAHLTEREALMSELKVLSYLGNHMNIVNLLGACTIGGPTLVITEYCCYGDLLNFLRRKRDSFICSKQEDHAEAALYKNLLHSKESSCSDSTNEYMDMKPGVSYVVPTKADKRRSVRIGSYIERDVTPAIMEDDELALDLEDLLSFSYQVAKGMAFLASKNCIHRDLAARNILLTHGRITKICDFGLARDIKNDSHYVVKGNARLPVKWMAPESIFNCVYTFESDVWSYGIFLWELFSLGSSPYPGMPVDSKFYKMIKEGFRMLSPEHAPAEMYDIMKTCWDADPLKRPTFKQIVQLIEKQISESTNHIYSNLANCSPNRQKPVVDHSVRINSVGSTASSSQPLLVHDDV", "details": "like wt KIT, literature (25); cited from earlier work"}, "[3]": {"molecular_target": "T1, RET (Homo sapiens, UniProt P07949)", "T1 construct": "preferably cytoplasmic domains of RTKs or fragments thereof, are expressed in the cytoplasm of host cells; expressed in transfected cells; host or cells: yeast (S. cerevisiae)", "T1 sequence (P07949 658-1114 limits assumed)": "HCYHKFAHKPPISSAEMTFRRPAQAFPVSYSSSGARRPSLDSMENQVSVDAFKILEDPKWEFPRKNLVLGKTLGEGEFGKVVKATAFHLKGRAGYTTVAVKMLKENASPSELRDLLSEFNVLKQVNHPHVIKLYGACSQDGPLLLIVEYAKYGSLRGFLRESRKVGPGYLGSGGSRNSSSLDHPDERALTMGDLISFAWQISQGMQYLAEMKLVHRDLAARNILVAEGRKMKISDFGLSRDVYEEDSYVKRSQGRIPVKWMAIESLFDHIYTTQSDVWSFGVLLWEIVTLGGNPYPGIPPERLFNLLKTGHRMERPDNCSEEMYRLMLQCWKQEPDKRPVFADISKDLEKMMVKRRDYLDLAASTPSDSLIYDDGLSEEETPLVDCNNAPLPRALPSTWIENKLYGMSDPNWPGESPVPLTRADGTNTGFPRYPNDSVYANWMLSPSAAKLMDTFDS", "test": "Yeast growth assay, selection of specific RTK inhibition (OD 600 nm)", "format": "cell-based", "details": "50 µM in the yeast culture", "description": "as §1"}, "[4]": {"tested_on": "HMC1.1", "details": "human cell line HMC1.1 expressing V560G mutation; literature (29); cited from earlier work"}, "[5]": {"molecular_target": "K642E (Homo sapiens, UniProt P10721, K642E)", "sequence (P10721 26-976 K642E)": "as the sequence (P10721 26-976 N822H) above, with K617E, H797N counted along it", "details": "like wt KIT, literature (25); cited from earlier work"}, "[6]": {"molecular_target": "D816V mutation (Homo sapiens, UniProt P10721, D816V)", "sequence (P10721 26-976 D816V)": "as the sequence (P10721 26-976 N822H) above, with D791V, H797N counted along it", "details": "literature (29), cited from earlier work"}, "[7]": {"molecular_target": "T2, KIT mutant D816V (Homo sapiens, UniProt P10721, D816V)", "T2 construct": "preferably cytoplasmic domains of RTKs or fragments thereof, are expressed in the cytoplasm of host cells; expressed in transfected cells; host or cells: S. cerevisiae RLY09/Δptp1", "T2 sequence (P10721 546-976 D816V limits assumed)": "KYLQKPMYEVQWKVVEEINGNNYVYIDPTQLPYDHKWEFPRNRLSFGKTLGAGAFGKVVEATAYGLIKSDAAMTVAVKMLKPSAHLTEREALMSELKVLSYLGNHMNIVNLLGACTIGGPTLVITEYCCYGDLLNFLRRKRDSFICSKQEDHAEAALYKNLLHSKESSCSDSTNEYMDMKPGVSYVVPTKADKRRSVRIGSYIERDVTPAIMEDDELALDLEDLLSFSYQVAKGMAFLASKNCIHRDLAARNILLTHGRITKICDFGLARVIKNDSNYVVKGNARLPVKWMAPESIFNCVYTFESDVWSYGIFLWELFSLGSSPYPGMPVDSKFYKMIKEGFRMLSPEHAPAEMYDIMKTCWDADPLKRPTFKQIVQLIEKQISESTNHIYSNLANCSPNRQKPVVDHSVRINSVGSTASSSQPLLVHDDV", "test": "Yeast cell-based growth rescue assay, KIT mutant", "details": "0.2 to 100 µM; yeast strain RLY09/Δptp1; PD180970 effect at the highest concentrations", "description": "(§2) Expression of wild-type KIT confers only a slight slow growth phenotype in yeast (in the RLY07 strain, under the full-length GAL promoter). Various mutations that occur in human GISTs or in mastocytosis were introduced in the Kit construct expressed in yeast. Expression of the various mutants caused reduced yeast growth but in various extent, likely correlating with various extent of activity (see graphs Figures 7a and 7b) . […] The yeast strain expressing the various Kit proteins in this experiment, was […] which all the Kit proteins produce a similar slow growth phenotype (see values of the window vector/RTK). The starting OD was optimized to obtain windows as similar as possible."}, "[8]": {"molecular_target": "T3, KIT mutant D816Y (Homo sapiens, UniProt P10721, D816Y)", "T3 construct": "preferably cytoplasmic domains of RTKs or fragments thereof, are expressed in the cytoplasm of host cells; expressed in transfected cells; host or cells: S. cerevisiae RLY09/Δptp1", "T3 sequence (P10721 546-976 D816Y limits assumed)": "as the sequence (P10721 546-976 D816V limits assumed) above, with V271Y counted along it", "test": "Yeast cell-based growth rescue assay, KIT mutant", "details": "0.2 to 100 µM; yeast strain RLY09/Δptp1; PD180970 effect at the highest concentrations", "description": "as §2"}, "[9]": {"molecular_target": "T4, KIT mutant D816F (Homo sapiens, UniProt P10721, D816F)", "T4 construct": "preferably cytoplasmic domains of RTKs or fragments thereof, are expressed in the cytoplasm of host cells; expressed in transfected cells; host or cells: S. cerevisiae RLY09/Δptp1", "T4 sequence (P10721 546-976 D816F limits assumed)": "as the sequence (P10721 546-976 D816V limits assumed) above, with V271F counted along it", "test": "Yeast cell-based growth rescue assay, KIT mutant", "details": "0.2 to 100 µM; yeast strain RLY09/Δptp1; PD180970 effect at the highest concentrations", "description": "as §2"}, "[10]": {"tested_on": "HMC-1 cells", "details": "literature (23); cited from earlier work"}, "[11]": {"details": "patients with nonsmall cell lung cancer; cited from earlier work"}}, "note": "Structures can show the parent of a compound that is named as a salt. Where two headings read alike, the source gives them in different places.", "data": [{"smiles": "Cc1ccc(NC(=O)c2ccc(CN3CCN(C)CC3)cc2)cc1Nc1nccc(-c2cccnc2)n1", "note": "[Gleevec, imatinib mesylate]", "values": [{"measurement": "restores growth of PDGFR-β-expressing yeast cells", "setting": "[1]", "value": "specifically restores growth"}, {"measurement": "sensitive in vitro (concentration)", "setting": "[2]", "value": "100 to 200", "unit": "nM"}, {"measurement": "restores growth of cells expressing RET", "setting": "[3]", "value": "not growth of cells expressing RET"}, {"measurement": "apoptosis", "setting": "[4]", "value": "induce apoptosis"}, {"measurement": "sensitive in vitro (concentration)", "setting": "[5]", "value": "100 to 200", "unit": "nM"}, {"measurement": "resistance of D816V mutant to inhibitor", "setting": "[6]", "value": "resistant"}, {"measurement": "resistance of D816V mutant to inhibitor", "setting": "[6]; listed as STI571", "value": "resistance"}, {"measurement": "sensitivity of mutant D816V in yeast (growth rescue)", "setting": "[7]", "value": "resistant"}, {"measurement": "sensitivity of mutant D816Y in yeast (growth rescue)", "setting": "[8]", "value": "resistant"}, {"measurement": "sensitivity of mutant D816F in yeast (growth rescue)", "setting": "[9]", "value": "resistant"}]}, {"smiles": "Cc1cc(Nc2ncc3cc(-c4c(Cl)cccc4Cl)c(=O)n(C)c3n2)ccc1F", "note": "[PD180970]", "values": [{"measurement": "KIT phosphorylation", "setting": "[10]", "value": "inhibits"}, {"measurement": "cell proliferation", "setting": "[10]", "value": "inhibits"}, {"measurement": "resistance of D816V mutant to inhibitor", "setting": "[6]", "value": "resistant"}, {"measurement": "sensitivity of mutant D816V in yeast (growth rescue)", "setting": "[7]", "value": "slight effect"}, {"measurement": "sensitivity of mutant D816Y in yeast (growth rescue)", "setting": "[8]", "value": "slight effect"}, {"measurement": "sensitivity of mutant D816F in yeast (growth rescue)", "setting": "[9]", "value": "slight effect"}]}, {"smiles": "COc1cc2ncnc(Nc3ccc(F)c(Cl)c3)c2cc1OCCCN1CCOCC1", "note": "[gefitinib]", "values": [{"measurement": "patients have a rapid and often dramatic clinical response", "setting": "[11]", "value": 10, "unit": "%"}]}]}
